The structures appear in SMILES notation.

In assay [1] the test system is PTZ-induced seizures in mice. Briefly: Pentylenetetrazol (PTZ)-induced seizures in mice. The format is in vivo, mouse. As to conditions: for latency to seizures / fatality latency / fatality rate: 30 mg/kg I.P., PTZ 40 mg/kg I.P.; for fatality latency / fatality rate: 20 min cutoff; for PTZ-induced Fatality (%): 30 mg/kg I.P. 60 min before PTZ 40 mg/kg I.P., death within 20 min. How it is done: FIG. 10. […] Sixty minutes (min) prior to receiving PTZ (40 mg/kg, I.P.), each mouse was pretreated with either an Example compound, ML218, Z944 or vehicle (2% DMSO in 0.5% HPC). Fatality rate (%) of mice in each group that dies within the 20 minutes observation period—was calculated. Both fatality rate and latency (data not shown) to death were used to evaluate the Example compound's ability to prevent death resulting from PTZ-induced seizures. A cutoff of 20 minutes was set for observational and statistical analysis purposes.
It is well known that antiepileptics, e.g. carbamazepine, lamotrigine and gabapentin are used for the treatment of neuropathic pain (Xie et al., 1995, Caviedes and Herranz, 2001). T-channel overactivation is involved in the generation of seizure activity (Huguenard, 1998, Cribbs et al., 2000, Perez-Reyes et al., 2009, Perez-Reyes, 2010). […] Fatality latency and rate—the percentage (%) of mice in each treatment group that died within a 20 minute cutoff of the observational period, were recorded and calculated. Averaged fatality latency and rate of each treatment group was used to evaluate the Example compound's ability to either prevent or delay the onset of PTZ-induced seizures and death.

A further assay has as its target T1, Cav3.3 (Homo sapiens, UniProt Q9P0X4).
T1 construct: expressed in transfected cells; host or cells: HEK-293, tetracycline inducible expression system (Invitrogen)
Briefly: Whole-cell patch clamp of T-type Cav3.3 channel expressed in HEK293 cells. The format is cell-based. Conditions: Table 2. How it is done:
Cav3.1, Cav3.2 or Cav3.3 channels were expressed in human embryonic kidney (HEK)-293 cells using a tetracycline inducible expression system (Invitrogen). Cells were maintained in 25 cm^2 tissue culture flasks at 37° C., 5% CO2, and 100% relative humidity in D-MEM/F12 (Dulbecco's Modified Eagle Medium/Nutrient Mixture F-12; Gibco) supplemented with fetal bovine serum (FBS, 10% v/v), sodium pyruvate (0.5 mM, Gibco), penicillin-streptomycin (100 U/mL, 100 μg/mL) and Geneticin® Selective antibiotic (G418; 0.5 mg/mL). Cells were detached from the flask base using a non-enzymatic cell dissociation solution (Cellstripper, Corning), removed and re-seeded on to poly-D-lysine coated glass coverslips in 35 mm dishes.
Whole-cell voltage clamp recordings were performed on rat or mouse DRG neurons within 2 days after acutely dissociation or cultured HEK293 cells expressing T-type channels (encoded by Cav3.1, Cav3.2 or Cav3.3 channels). All experiments were performed at room temperature (around 21° C.). Whole-cell currents were recorded using a MultiClamp 700B amplifier and analyzed offline with pCLAMP10.4 software (Molecular Devices, LLC, Sunnyvale Calif., USA). […] Since the sodium ions were absent in the external solution, tetrodoctoxin was not needed. Calcium currents were recorded at a holding potential of −100 mV and then depolarized to −30 mV for 100 ms to activate either Cav3.1, Cav3.2, or Cav3.3 expressed in HEK cells. An interpulse interval of 10 seconds allowed the channel recovery from inactivation, and achieved stable current recordings. To record sodium (Na^+) currents in DRG neurons, the external solution used the modified Krebs solution specified above. The internal solution was composed (in mM) of 120 CsF, 10 HEPES, 11 EGTA, 1 CaCl2, 1 MgCl2, 10 TEA-Cl, 4 MgATP and 0.3 MgGTP (pH 7.3-7.4 adjusted with CsOH). […] To record potassium currents in DRG neurons, the external solution used the modified Kreb's solution specified above. The internal solution was composed (in mM) of 65 KCl, 80 KF, 5 KOH, 10 EGTA, 2 MgATP (pH 7.3-7.4 adjusted with KOH). Recording electrodes were fabricated using a P-87 puller (Sutter Instrument Co., Novato, Calif., USA). The tip of resistance was 3-4 MQ in bath and the series resistance was less than 10 MΩ after whole cell configuration. All reagents were purchased from Sigma unless specified otherwise. Test compounds were usually applied via a rapid solution exchange system with 8 fine polyplastic tubings (100 μm, OD) glued in a holder in parallel and located closely to the recorded cells. The current responses were normalized to the control, percent inhibition was calculated and sigmoidal dose-response curves were generated using XLFit (IDBS, Surrey, UK) or Prism (GraphPad Software, La Jolla, Calif., US) to calculate IC50 values and Hill slopes using the following equation Y=Bottom+(Top−Bottom)/(1+10^((Log EC50−X)[…])).

For the next assay, the target named is T2, Cardiac Na+ channels (Homo sapiens, UniProt Q14524).
T2 construct: host or cells: human iPSC-derived cardiomyocytes
Briefly: Cardiac sodium currents in human iPSC-derived cardiomyocytes. The format is cell-based. Conditions: for IC50: human iPSC cardiomyocytes. As for the experimental part: Cardiac sodium channels play a critical role in heart contraction. Inhibition of these sodium channels could potentially cause severe unwanted side effects. Therefore the representative example compounds in Table 2 were tested in cardiac sodium channels. Cardiomyocytes derived from human induced pluripotent stem cells (iPSC-CM) were obtained from Axol Bioscience Ltd (Cambridge, UK). Cells were thawed and grown on matrigel coated glass coverslips in Cardiomyocyte Maintenance Medium (Axol Bioscience). […] The internal solution was composed (in mM) of 120 KF, 10 HEPES, 11 EGTA, 1 CaCl2, 1 MgCl2, 10 TEA-Cl (pH 7.2 adjusted with KOH). Sodium currents were recorded at a holding potential of −100 mV and depolarized to −20 mV. Cells were incubated with example compounds until currents reached a steady-state level. To determine IC50 values, example compounds were applied gradually from low to high concentrations. The current responses were normalized to the control, percent inhibition was calculated and a sigmoidal dose response curve was plotted to determine IC50 values as described above.

T2 sequence (Q14524 whole entry): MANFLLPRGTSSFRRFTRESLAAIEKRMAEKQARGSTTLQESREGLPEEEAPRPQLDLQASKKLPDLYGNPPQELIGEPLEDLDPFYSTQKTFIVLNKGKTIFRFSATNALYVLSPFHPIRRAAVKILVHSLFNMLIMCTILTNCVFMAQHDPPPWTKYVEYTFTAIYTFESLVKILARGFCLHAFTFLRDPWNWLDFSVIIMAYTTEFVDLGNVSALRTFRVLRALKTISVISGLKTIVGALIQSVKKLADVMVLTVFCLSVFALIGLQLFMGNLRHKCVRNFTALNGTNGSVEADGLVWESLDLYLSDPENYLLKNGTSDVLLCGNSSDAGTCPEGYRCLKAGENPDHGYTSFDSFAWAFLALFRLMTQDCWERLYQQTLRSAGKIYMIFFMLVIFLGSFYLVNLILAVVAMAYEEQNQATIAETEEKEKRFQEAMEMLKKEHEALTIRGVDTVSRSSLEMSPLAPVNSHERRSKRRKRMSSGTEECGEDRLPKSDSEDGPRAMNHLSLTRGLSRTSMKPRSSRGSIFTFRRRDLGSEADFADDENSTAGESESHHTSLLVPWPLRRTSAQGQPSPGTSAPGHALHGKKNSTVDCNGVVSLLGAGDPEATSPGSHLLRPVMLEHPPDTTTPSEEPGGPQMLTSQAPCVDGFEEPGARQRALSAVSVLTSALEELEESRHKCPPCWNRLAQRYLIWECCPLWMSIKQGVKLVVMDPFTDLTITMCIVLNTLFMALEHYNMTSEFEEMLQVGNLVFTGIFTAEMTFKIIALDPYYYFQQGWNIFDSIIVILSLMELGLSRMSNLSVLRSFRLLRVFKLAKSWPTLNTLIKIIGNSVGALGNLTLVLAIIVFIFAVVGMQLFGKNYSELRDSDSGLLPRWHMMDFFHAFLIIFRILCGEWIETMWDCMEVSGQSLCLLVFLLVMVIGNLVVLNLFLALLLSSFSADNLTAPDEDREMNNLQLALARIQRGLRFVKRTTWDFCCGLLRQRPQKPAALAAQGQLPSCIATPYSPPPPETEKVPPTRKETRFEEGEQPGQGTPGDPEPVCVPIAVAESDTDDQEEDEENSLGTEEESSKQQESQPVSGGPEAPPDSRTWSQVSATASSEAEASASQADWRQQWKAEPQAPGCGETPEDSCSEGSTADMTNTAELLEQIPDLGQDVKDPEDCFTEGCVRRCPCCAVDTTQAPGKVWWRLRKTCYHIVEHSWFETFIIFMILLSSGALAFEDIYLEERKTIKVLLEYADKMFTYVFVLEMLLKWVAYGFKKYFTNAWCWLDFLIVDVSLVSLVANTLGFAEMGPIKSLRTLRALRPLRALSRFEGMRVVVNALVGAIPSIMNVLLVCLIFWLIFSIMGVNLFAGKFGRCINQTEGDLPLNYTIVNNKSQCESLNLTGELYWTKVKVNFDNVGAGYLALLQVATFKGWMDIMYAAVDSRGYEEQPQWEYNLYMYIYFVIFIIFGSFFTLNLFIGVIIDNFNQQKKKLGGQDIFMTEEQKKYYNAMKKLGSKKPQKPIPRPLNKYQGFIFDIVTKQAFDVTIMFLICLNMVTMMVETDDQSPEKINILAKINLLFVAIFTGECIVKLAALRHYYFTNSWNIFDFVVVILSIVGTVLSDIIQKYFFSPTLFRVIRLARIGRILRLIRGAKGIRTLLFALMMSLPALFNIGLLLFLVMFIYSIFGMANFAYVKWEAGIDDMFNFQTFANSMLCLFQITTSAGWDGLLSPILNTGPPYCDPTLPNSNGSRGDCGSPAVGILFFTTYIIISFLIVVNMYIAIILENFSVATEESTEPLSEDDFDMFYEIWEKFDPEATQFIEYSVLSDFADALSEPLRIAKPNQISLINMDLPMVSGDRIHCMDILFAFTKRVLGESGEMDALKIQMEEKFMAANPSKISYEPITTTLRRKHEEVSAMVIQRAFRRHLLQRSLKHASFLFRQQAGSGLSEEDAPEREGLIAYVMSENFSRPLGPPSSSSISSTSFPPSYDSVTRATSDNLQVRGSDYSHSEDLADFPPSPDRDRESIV
T1 sequence (Q9P0X4 whole entry, species assumed): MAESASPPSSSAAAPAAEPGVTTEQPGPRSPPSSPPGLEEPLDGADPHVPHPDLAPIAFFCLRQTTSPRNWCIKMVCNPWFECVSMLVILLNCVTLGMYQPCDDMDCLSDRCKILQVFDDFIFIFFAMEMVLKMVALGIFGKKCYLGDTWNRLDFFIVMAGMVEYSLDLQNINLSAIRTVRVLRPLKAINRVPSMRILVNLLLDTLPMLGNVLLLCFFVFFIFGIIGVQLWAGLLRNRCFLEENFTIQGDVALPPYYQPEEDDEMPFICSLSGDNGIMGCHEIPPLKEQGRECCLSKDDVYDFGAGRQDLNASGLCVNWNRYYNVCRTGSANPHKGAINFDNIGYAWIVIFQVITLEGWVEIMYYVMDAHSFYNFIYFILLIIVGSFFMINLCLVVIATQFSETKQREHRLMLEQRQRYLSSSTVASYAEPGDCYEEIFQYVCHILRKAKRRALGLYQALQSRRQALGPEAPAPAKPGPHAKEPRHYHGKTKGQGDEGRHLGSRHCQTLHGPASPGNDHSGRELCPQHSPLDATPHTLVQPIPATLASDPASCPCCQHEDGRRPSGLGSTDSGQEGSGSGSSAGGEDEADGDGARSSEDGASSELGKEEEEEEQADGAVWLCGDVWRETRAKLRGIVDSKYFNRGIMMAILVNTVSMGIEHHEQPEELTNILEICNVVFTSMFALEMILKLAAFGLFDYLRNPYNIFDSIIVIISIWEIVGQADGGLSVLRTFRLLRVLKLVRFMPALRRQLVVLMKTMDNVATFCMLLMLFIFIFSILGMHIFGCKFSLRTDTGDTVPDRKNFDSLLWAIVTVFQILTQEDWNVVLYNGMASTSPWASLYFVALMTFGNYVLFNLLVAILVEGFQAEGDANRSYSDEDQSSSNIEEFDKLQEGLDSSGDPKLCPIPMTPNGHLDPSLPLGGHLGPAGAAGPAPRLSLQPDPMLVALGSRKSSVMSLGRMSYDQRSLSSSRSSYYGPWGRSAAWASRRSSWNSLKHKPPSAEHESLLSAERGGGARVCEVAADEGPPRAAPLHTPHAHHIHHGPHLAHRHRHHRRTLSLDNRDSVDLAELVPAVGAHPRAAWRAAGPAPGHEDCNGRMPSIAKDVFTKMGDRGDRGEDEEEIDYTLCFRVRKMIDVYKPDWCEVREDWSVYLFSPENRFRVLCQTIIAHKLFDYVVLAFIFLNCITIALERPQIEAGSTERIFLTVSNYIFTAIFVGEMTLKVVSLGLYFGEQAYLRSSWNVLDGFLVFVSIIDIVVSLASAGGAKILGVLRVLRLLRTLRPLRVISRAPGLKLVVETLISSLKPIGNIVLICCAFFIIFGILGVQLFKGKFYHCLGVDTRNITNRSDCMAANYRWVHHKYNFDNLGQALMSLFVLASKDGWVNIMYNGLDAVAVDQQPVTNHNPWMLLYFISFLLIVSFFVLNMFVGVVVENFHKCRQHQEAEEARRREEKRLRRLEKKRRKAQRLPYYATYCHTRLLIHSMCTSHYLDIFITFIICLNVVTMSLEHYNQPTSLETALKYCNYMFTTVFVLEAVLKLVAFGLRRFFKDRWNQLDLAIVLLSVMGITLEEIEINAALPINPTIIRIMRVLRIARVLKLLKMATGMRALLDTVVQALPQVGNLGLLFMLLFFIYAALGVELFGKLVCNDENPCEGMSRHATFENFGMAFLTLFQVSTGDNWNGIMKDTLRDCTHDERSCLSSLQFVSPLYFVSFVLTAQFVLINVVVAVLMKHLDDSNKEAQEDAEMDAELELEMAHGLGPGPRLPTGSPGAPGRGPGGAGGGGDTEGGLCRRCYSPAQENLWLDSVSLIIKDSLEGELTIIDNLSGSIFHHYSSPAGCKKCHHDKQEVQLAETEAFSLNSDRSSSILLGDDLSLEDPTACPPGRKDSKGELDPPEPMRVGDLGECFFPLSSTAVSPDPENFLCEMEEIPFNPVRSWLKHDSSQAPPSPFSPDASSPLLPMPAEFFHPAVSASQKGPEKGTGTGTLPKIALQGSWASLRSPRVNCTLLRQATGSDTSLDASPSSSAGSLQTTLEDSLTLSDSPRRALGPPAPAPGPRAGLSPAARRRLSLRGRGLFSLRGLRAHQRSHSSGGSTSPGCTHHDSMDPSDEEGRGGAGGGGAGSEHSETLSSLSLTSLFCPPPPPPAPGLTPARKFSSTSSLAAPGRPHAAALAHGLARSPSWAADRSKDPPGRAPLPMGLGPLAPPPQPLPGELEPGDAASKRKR

In the case of `CC(C)(C)CCN1CCC2(CC1)C[C@H]2NC(=O)c1cc(C(F)(F)F)cc(C(F)(F)F)c1` (single isomer, unassigned) [Example 146, (R)—N-(6-(3,3-dimethylbutyl)-6-azaspiro[2.5]octan-1-yl)-3,5-bis(trifluoromethyl)benzamide or (S)—N-(6-(3,3-dimethylbutyl)-6-azaspiro[2.5]octan-1-yl)-3,5-bis(trifluoromethyl)benzamide], in assay [1], the latency to seizures entry is reported as “significantly prolonged latencies to seizures”, the fatality latency result is recorded as “prolonged fatality latencies” and the fatality rate entry was “decreased the fatality rate”. Half-maximal inhibition at Cav3.3 (IC50) was put at 110 nM. Besides, the IC50 – broadly, the concentration that inhibits the measured activity by half – at Cardiac Na+ channels came to 27800 nM.
As to `CC(C)(C)CCN1CCC2(CC1)C[C@H]2NC(=O)c1cc(C(F)(F)F)ccc1Cl` (single isomer, unassigned) [Example 147, (R)-2-Chloro-N-(6-(3,3-dimethylbutyl)-6-azaspiro[2.5]octan-1-yl)-5-(trifluoromethyl)benzamide or (S)-2-Chloro-N-(6-(3,3-dimethylbutyl)-6-azaspiro[2.5]octan-1-yl)-5-(trifluoromethyl)benzamide], in assay [1], the latency to seizures result is given as “significantly prolonged latencies to seizures”, the fatality latency entry was “prolonged fatality latencies” and the fatality rate result was “decreased the fatality rate”. The IC50 against Cav3.3 is 1580 nM. Also, on Cardiac Na+ channels, the IC50 is 43000 nM.
For `CC(C)(C)CCN1CCC2(CC1)CC2NC(=O)c1cc(F)cc(Cl)c1` (centres unmarked) [Example 28, 3-Chloro-N-(6-(3,3-dimethylbutyl)-6-azaspiro[2.5]octan-1-yl)-5-fluorobenzamide], in that order: “significantly prolonged latencies to seizures”, “prolonged fatality latencies”, “decreased the fatality rate”, 210 nM and 37200 nM.
As to `CC(C)(C)NC(=O)CN1CCC2(CC1)CC2C(=O)Nc1cc(F)cc(C(F)(F)F)c1` (centres unmarked) [Example 141, 6-(2-(tert-Butylamino)-2-oxoethyl)-N-(3-fluoro-5-(trifluoromethyl)phenyl)-6-azaspiro[2.5]octane-1-carboxamide], in assay [1], the latency to seizures entry is reported as “significantly prolonged latencies to seizures”, the fatality latency result is listed as “prolonged fatality latencies” and the fatality rate entry is on record as “decreased the fatality rate”. For the same molecule, the IC50 on Cav3.3 worked out at 230 nM. Also, the inhibition at 3 µM on Cardiac Na+ channels (3 μM, values in brackets, read-out: Cardiac Na+ (%) inh. at 3 μM) was found to be 28%.
As for `CC(C)(C)CCN1C[C@@H]2[C@@H](CNC(=O)c3cc(Cl)cc(Cl)c3)[C@@H]2C1` [ML218, 3,5-Dichloro-N-[[(1α,5α,6-exo,6α)-3-(3,3-dimethylbutyl)-3-azabicyclo[3.1.0]hex-6-yl]methyl]benzamide, reference compound], in assay [1], the “PTZ-induced Fatality (%)” value stood at 50%, the latency to seizures result was “significantly prolonged latencies to seizures”, the fatality latency result is “prolonged fatality latencies” and the fatality rate result is listed as “decreased the fatality rate”. For the same molecule, on Cav3.3, the IC50 stood at 270 nM. On Cardiac Na+ channels, this molecule had an IC50 of 39800 nM.
Regarding `CC(C)(C)NC(=O)CN1CCC(CNC(=O)c2cc(F)cc(Cl)c2)CC1` [Z944, reference compound], in assay [1], the “PTZ-induced Fatality (%)” value is listed as 33.3%, the latency to seizures entry is listed as “significantly prolonged latencies to seizures”, the fatality latency entry is recorded as “prolonged fatality latencies” and the fatality rate entry is “decreased the fatality rate”. Moreover, at Cav3.3, it took 570 nM to reach half-maximal inhibition (IC50). This molecule also returned an IC50 against Cardiac Na+ channels of 21400 nM.

Source of the values: patent US10562857B2 (AFASCI, Inc., priority 2015, dated 2020).
